Laboratory results: patent US8569324B2, “Potentiator for radiation therapy comprising pyridine derivative as active ingredient” (Taiho Pharmaceutical Co., Ltd., priority 2005, dated 2013)

Experiments:
[1] = system: human lung cancer LC-11 strain; assay: Comparative Example 1: radiotherapy enhancing effect of cisplatin on human lung cancer LC-11 strain transplanted into nude mice; assay type: in vivo, BALB/cA-nu mouse
Method: (a) Preparation of test solution I: The cisplatin solution (0.5 mg/mL) available from Bristol-Myers Squibb Company was used as it was. 0.1 mL per mouse body weight 10 g was administered for the dose of cisplatin 5 mg/kg, and […] per mouse body weight 10 g was administered for the dose of 7.5 mg/kg. (b) Method for radiation (X-ray) irradiation: Local irradiation was performed on a human tumor strain transplanted into the right femoral region of the mouse using MBR-1505R Type 2 X-ray Irradiation System of Hitachi Medical Corporation under an irradiation condition (irradiation position) so that exposure per mouse should be 2 Gy or 5 Gy. To prevent systemic irradiation, mice were placed in a storage box made of lead so that only their right leg should be exposed to radiation. (c) Test: The human lung cancer LC-11 strain subcutaneously transplanted into the back of a BALB/cA-nu mouse and grown beforehand were removed, cut into small fragments of about 2×2 mm^2 with scissors in physiological saline, and subcutaneously transplanted into the right femoral region of 5 to 6-week-old mice of the same strain with a transplantation needle. The mice were bred for at least 1 to 2 weeks and divided into the control group, the radiation alone group, the drug alone group, and the drug plus radiation group, so that the tumor volume and standard deviation (S.D.) in each group (n=6 per group) should be as uniform as possible. Then, drug administration and X-ray irradiation were initiated. For the drug treatment group, 0.1 mL per body weight 10 g of a cisplatin solution for the dose of 5 mg/kg or […] per body weight 10 g of this solution for the dose of 7.5 mg/kg was administered into the caudal vein on day 1. The radiation group was irradiated with 2 Gy of X-ray in the above-described manner on day 1, at the start of the test, and on day 8. For tumor-bearing mice in the control group (non-radiation/non-drug treatment group) and the radiation alone group, physiological saline was administered into the caudal vein on day 1. By using the above-mentioned numerical formula 1, the tumor volume of each mouse in each group was obtained prior to the start of treatment experiment, on days 3, 5, 8 (1 week later) and 11 during the treatment period, and days 15 (2 weeks later), 18, 22 (3 weeks later), 25, and 29 (4 weeks later) after completion of treatment. A relative tumor volume (RTV) to the tumor volume at the start of the test was obtained for each mouse. Then, the mean tumor growth inhibition rate (IR; %) in each treatment group based on the control group was obtained by using the above-mentioned numerical formula 2 on days 15, at the end of the treatment period, and 29, at 4 weeks later, and shown in Table 3.

[2] = system: human lung cancer strain (LC-11); assay: Test Example 2: radiotherapy enhancing effect of CNDP on human lung cancer strain LC-11 transplanted into nude mice; assay type: in vivo, BALB/cA-nu mouse
Method: (a) Preparation of test solution: 3-Cyano-2,6-dihydroxypyridine (CNDP) was suspended in a 0.5% (W/V) hydroxypropylmethylcellulose (HPMC) solution at concentrations of 2.5 and 5.0 mg/mL, and the suspension was stirred with a stirrer at room temperature for about 10 minutes and ultrasonicated for about 5 minutes with ice cooling to obtain a drug solution of 25 or 50 mg/kg/day as CNDP. (b) Method for radiation (X-ray) irradiation: Local irradiation was performed on a human tumor strain transplanted into the right femoral region of the mouse using MBR-1505R Type 2 X-ray Irradiation System of Hitachi Medical Corporation under an irradiation condition (irradiation position) so that exposure per mouse should be 2 Gy or 5 Gy. To prevent systemic irradiation, mice were placed in a storage box made of lead so that only their right leg should be exposed to radiation. (c) Test: The human lung cancer strain (LC-11) subcutaneously transplanted into the back of a BALB/cA-nu mouse and grown beforehand were removed, cut into small fragments of about 2×2 mm^2 with scissors in physiological saline, and subcutaneously transplanted into the right femoral region of 5 to 6-week-old mice of the same strain with a transplantation needle. The mice were bred for at least 1 to 2 weeks and divided into the control group, the radiation alone group, the drug alone group, and the drug plus radiation group, so that the tumor volume and standard deviation (S.D.) in each group (n=6 per group) should be as uniform as possible. Then, drug administration and X-ray irradiation were initiated. The drug treatment group was orally administered with 0.1 mL of the above-described 5 mg/mL CNDP drug solution per body weight 10 g once daily for 14 consecutive days using a sonde for oral administration. The radiation group was irradiated with 2 Gy or 5 Gy of X-ray within about 1 hour after administration of the CNDP drug solution in the above-described manner on day 1, at the start of the test, and on day 8. Tumor-bearing mice in the control group (non-radiation/non-drug treatment group) and the radiation alone group were orally administered with […] solution alone in the same manner for 14 consecutive days.
By using the above-mentioned numerical formula 1, the tumor volume of each mouse in each group was obtained prior to the start of treatment experiment, on days 3, 5, 8, (1 week later) and 11 during the treatment period, and day 15 (2 weeks later) after completion of treatment. A relative tumor volume (RTV) to the tumor volume at the start of the test was obtained for each mouse (FIG. 1).

SMILES	IR (%) Day 15 ([1]; CDDP 5.0 mg/kg caudal vein on day 1 + X-ray 2 Gy on days 1 and 8, Day 15)	IR (%) Day 29 ([1]; CDDP 5.0 mg/kg caudal vein on day 1 + X-ray 2 Gy on days 1 and 8, Day 29)	IR (%) Day 15 ([1]; CDDP 5.0 mg/kg caudal vein on day 1, no X-ray, Day 15)	IR (%) Day 29 ([1]; CDDP 5.0 mg/kg caudal vein on day 1, no X-ray, Day 29)	enhancement of antitumor effects by combination compared with CDDP alone ([1]; CDDP 5 mg/kg or 7.5 mg/kg and 2-Gy X-ray irradiation)	IR (%) Day 15 ([1]; CDDP 7.5 mg/kg caudal vein on day 1 + X-ray 2 Gy on days 1 and 8, Day 15)	IR (%) Day 29 ([1]; CDDP 7.5 mg/kg caudal vein on day 1 + X-ray 2 Gy on days 1 and 8, Day 29)	IR (%) Day 15 ([1]; CDDP 7.5 mg/kg caudal vein on day 1, no X-ray, Day 15)	IR (%) Day 29 ([1]; CDDP 7.5 mg/kg caudal vein on day 1, no X-ray, Day 29)	radiotherapy enhancing effect ([1]; series of examinations using human lung cancer LC-11 strain)	Tumor growth inhibition rate (IR) (%) Day 11 ([2]; CNDP 25 mg/kg oral once daily + X-ray 2 Gy on days 1 and 8, Day 11)	Tumor growth inhibition rate IR(%) Day 15 ([2]; CNDP 25 mg/kg oral once daily + X-ray 2 Gy on days 1 and 8, Day 15)	Tumor growth inhibition rate (IR) (%) Day 11 ([2]; CNDP 50 mg/kg oral once daily 14 days, X-ray 0 Gy, Day 11)	Tumor growth inhibition rate IR(%) Day 15 ([2]; CNDP 50 mg/kg oral once daily 14 days, X-ray 0 Gy, Day 15)	Tumor growth inhibition rate (IR) (%) Day 11 ([2]; CNDP 50 mg/kg oral once daily + X-ray 2 Gy on days 1 and 8, Day 11)	Tumor growth inhibition rate IR(%) Day 15 ([2]; CNDP 50 mg/kg oral once daily + X-ray 2 Gy on days 1 and 8, Day 15)	enhancement of the antitumor effect of X-ray ([2]; CNDP 25 and 50 mg/kg with 2-Gy X-ray irradiation in combination)	antitumor effect of drug alone ([2]; CNDP alone, high dose of 50 mg/kg)	serious adverse drug reactions (body weight loss, skin disorders) ([2]; mice receiving CNDP and X-ray in combination)
[NH2][Pt]([NH2])([Cl])[Cl] [CDDP, cisplatin]	53.8%	46.8%	39.9%	45.6%	did not significantly enhance antitumor effects	54.6%	66.8%	55.8%	60.2%	very weak	–	–	–	–	–	–	–	–	–
N#Cc1ccc(O)nc1O [CNDP, 3-cyano-2,6-dihydroxypyridine]	–	–	–	–	–	–	–	–	–	–	44.7%	54.6%	1.8%	8.2%	44.4%	60.4%	significantly increased the antitumor effect of 2-Gy X-ray	hardly showed any antitumor effect	no serious adverse drug reactions such as body weight loss and skin disorders were observed
